Reference: publication PMC4023695 (ACS medicinal chemistry letters, 2014)
Marks after values point to notes of the source that are not given here.

Key:
MOR [1] = target: MOR (Rattus norvegicus, UniProt P33535); format: binding
Caco-2 cell monolayers = test: Caco-2 cell monolayer translocation; format: in vitro ADME
C57Bl6 mice = test: Mouse tail-flick assay; format: in vivo; details: intravenous, nonlinear regression of log dose–response curve
[2] = Metabolic plasma stability assay; format: in vitro ADME; details: up to 20 h
[3] = cited from earlier work
MOR [4] = details: read-out: GPI IC50; DALDA literature characterisation, no reference given; cited from earlier work
[5] = cis-concentration 13 nM, absence of unlabelled compound, means ± SE, n = 3

MOR (Rattus norvegicus, UniProt P33535), sequence (P33535 whole entry): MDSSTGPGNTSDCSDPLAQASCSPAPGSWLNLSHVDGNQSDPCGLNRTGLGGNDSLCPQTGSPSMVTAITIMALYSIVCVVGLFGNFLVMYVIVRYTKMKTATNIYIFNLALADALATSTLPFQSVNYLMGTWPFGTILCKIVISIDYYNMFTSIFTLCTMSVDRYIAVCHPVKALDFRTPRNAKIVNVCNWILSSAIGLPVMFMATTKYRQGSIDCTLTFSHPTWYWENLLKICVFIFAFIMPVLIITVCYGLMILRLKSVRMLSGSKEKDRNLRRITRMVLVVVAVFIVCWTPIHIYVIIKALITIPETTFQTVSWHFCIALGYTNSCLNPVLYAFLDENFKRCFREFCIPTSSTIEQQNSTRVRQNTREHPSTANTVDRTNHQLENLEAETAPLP

In the case of `N=C(N)NCCC[C@@H](NC(=O)[C@@H](N)Cc1ccc(OCc2cn([C@@H]3O[C@H](CO)[C@H](O)[C@H](O)[C@H]3O)nn2)cc1)C(=O)N[C@@H](Cc1ccccc1)C(=O)N[C@@H](CCCCN)C(N)=O` [compound 3], the “loss in binding (MOR) relative to DALDA” value (MOR [1]; compound 3 vs DALDA) is reported as 22 fold and the “Ki ratio μ/δ” value (MOR [1]; μ/δ receptor binding selectivity ratio) is reported as over 130.

In the case of `Cc1cc(O)cc(C)c1C[C@H](N)C(=O)N[C@H](CCCNC(=N)N)C(=O)N[C@@H](Cc1ccccc1)C(=O)N[C@@H](Cc1cn([C@@H]2O[C@H](CO)[C@H](O)[C@H](O)[C@H]2O)nn1)C(N)=O` [compound 4], the “A–B and B–A permeabilities compared to mannitol” value (Caco-2 cell monolayers; 21 day old Caco-2 monolayers, 13 nM) is reported as “slightly higher than the permeability of the passive flux marker mannitol”, the “Flux A–B (lumen–blood)” value (Caco-2 cell monolayers; [5]) is reported as 2.59 ± 0.15 nmol·cm^−2·min^−1 × 10^−7 and the “Flux B–A (blood–lumen)” value (Caco-2 cell monolayers; [5]) is reported as 2.96 ± 0.13 nmol·cm^−2·min^−1 × 10^−7. The ED50 tail-flick test (C57Bl6 mice) was 0.27* mg/kg and the “degradation in human plasma” value [2] was “no degradation products could be observed”.

In the case of `Cc1cc(O)cc(C)c1C[C@H](N)C(=O)N[C@H](CCCNC(=N)N)C(=O)N[C@@H](Cc1ccccc1)C(=O)N[C@@H](Cc1cn([C@@H]2O[C@H](CO)[C@@H](O)[C@H](O)[C@H]2O)nn1)C(N)=O` [compound 5], the “degradation in human plasma” value [2] is reported as “no degradation products could be observed”.

In the case of `OC[C@@H](O)[C@@H](O)[C@H](O)[C@H](O)CO` [mannitol], the oral bioavailability [3] is given as ~ 20%.

For Tyr-D-Arg-Phe-Lys-NH2 [DALDA], the IC50 (MOR [4]) is listed as 254 nM.
